The source of these data is ChEMBL document CHEMBL1150990, “Studies of the inactivation of general acyl-coa dehydrogenase by (1R)- and (1S)-(methylenecyclopropyl)acetyl-coa” (Bioorg Med Chem Lett, 1992).

The nature of experiment [1]: Partition ratio of the inactivation of general acyl-CoA dehydrogenase by the compound was determined.
Experiment [2] is described as follows: Inactivation of general acyl-CoA dehydrogenase by the compound was determined and expressed as kinact.

Structures are written as SMILES.

On to `C=C1C[C@@H]1CC(=O)SCCNC(=O)CCNC(=O)[C@H](O)C(C)(C)COP(=O)(O)OP(=O)(O)OC[C@H]1O[C@@H](n2cnc3c(N)ncnc32)[C@H](O)[C@@H]1OP(=O)(O)O`, for which the Ratio in experiment [1] came out at 3.4. In experiment [2], this compound showed a K inact of 0.0173 s⁻¹.

Take `C=C1C[C@H]1CC(=O)SCCNC(=O)CCNC(=O)[C@H](O)C(C)(C)COP(=O)(O)OP(=O)(O)OC[C@H]1O[C@@H](n2cnc3c(N)ncnc32)[C@H](O)[C@@H]1OP(=O)(O)O`: the Ratio in experiment [1] amounted to 4. Also, the K inact in experiment [2] came to 0.0163 s⁻¹.
